Experimental data reported in PMC6978316, “Development of chimeric peptides to facilitate the neutralisation of lipopolysaccharides during bactericidal targeting of multidrug-resistant Escherichia coli” (Communications Biology, 2020).
Where a SMILES comes first, the peptide text is derived from it. Bridges are numbered along the chain shown (N, C = ends).

Key:
E. coli CVCC195 = format: cell-based, Escherichia coli; conditions: E. coli CVCC195
Protocol: Bacterial resistance against the peptides was assessed via the MIC assays. […] After 16–18 h of incubation at 37 °C, cells from the second highest concentration showing visible growth were used to inoculate the subsequent cultures. The MIC values for drug passage cultures were obtained as described above. This process was repeated for 30 d.

binding of LPS to LBP = assay: Binding of LPS to LBP on LPS-immobilized plate (ELISA); format: biochemical; conditions: mean of n = 3
Protocol: The 96-well microtiter plates were coated with 4 ng per ml LPS (0.1 M Na2CO3 and 20 mM EDTA, pH 9.6, 50 μl per well) overnight at 4 °C, washed three times with PBST, and blocked with PBS (containing 1% BSA) for 2 h. After washing with PBST again, the plates were incubated at 37 °C for 1 h with different concentrations of peptides (A6, G6, or N6), which were dissolved in Dulbecco's Modified Eagle's (DMEM) medium (containing 10% FBS). After washing, cells were incubated with anti-LBP mAb 6G3 (ThermoFisher) for 1 h at 37 °C and HRP-conjugated rabbit anti-mouse IgG for 1 h at room temperature, respectively. Tetramethylbenzidine (TMB) solution was then added and incubated for 25–30 min. Finally, the reaction was stopped by addition of 0.5 M H2SO4, and the absorbance was measured at 450 nm[50].

[1] = tested on: TNF-α, IL-6 and IL-10 in LPS-stimulated RAW 264.7 cells; assay: Cytokines in LPS-stimulated macrophages (ELISA); format: cell-based, mouse; set-up: unit not given here
Protocol: Macrophages RAW 264.7 were incubated with LPS (0.1 and 1 μg per ml) that was dissolved in serum-free DMEM medium, and then were treated with A6, G6, N6, or PMB (20 μM) alone in 24-well plates (2.5 × 10^5 cells per well). The cells incubated with serum-free DMEM and LPS were used as a control. After treatment for 2 h, the supernatants were collected and assessed for TNF-α, IL-6, and IL-10 by using the ELISA kits in the Jiaxuan Biotech. Co. Ltd. (Beijing, China).
73 Supplementary Figure 15. Effects of SCPs on cytokines in RAW 264.7 ells. Cells were incubated with 0.1 μg per
74 ml (a) or 1 μg per ml (b) LPS and 20 μM A6, G6, N6 or PMB for 2 h. The levels of TNF-α, IL-6 and IL-10 in
75 supernatants were measured using ELISA. The data are given as the mean ± SD (n = 3 independent experiments).
76 Different lower case letters indicate a significant difference between two groups (p < 0.05).
(1 picture or pasted object on this page, not shown here)

[2] = tested on: Intestinal alkaline phosphatase (IAP); assay: IAP level in duodenum of LPS-challenged mice; format: in vivo; conditions: duodenum homogenate, peptides 0.25 μmol per kg, PMB 10 μmol per kg, LPS alone 10.2985, CK 14.2257, n = 3
Protocol: The mice were intraperitoneally injected with LPS at an absolute LD100 and then were treated with 0.25 μmol per kg peptides (A6, G6 and N6) or 10 μmol per kg PMB at 0.5 h after challenge. The mice were sacrificed at 2 h and the sera were collected to detect inflammatory cytokines (including TNF-α, IL-6 and IL-10) using ELISA kits. To visualize IAP activity, the duodenum was rapidly excised from the mice and was homogenized; the IAP levels in the superpants were detected as described in the Supplementary Information. […]
114 Effects of SCPs on inflammatory cytokines and IAP. The serum sample (50 μl) was added into
115 each well of the plate; 50 μl of TNF-α, IL-I, IL-10 or IAP standard, control and test samples were then
116 added to each well of the plate, followed by placing the latex film on the shaker and incubation for 2
117 h at room temperature. After discarding the liquid in the well, the enzyme labeling plate was placed in
118 a 400 μl washing solution in the washing machine for 4 times; the enzyme labeling plate is inverted
119 and tapped on a clean paper towel so that there was no residual liquid in each hole . Mouse TNF-α，
120 IL-I，IL10 or IAP Conjugate (HRP Conjugate Detection Ab) working solution (100 μl) was added to
121 each well of the plate (diluted 1:100 before the test); the latex film was placed on the shaker and
122 incubated for 2 h at room temperature. After discarding the liquid in the well, the enzyme labeling
123 plate was placed in a 400 μl washing solution in the washing machine for 4 times, then the enzyme
124 labeling plate is inverted, and tapped on a clean paper towel so that there is no residual liquid in each
125 hole. Substrate Solution (100 μl) was added to each well of the plate and incubated at room
126 temperature for 30 min in the dark. Finally, 100 μl of Stop Solution (2N sulfuric acid solution) was
127 added to each well of the plate and gently mixed the plate to stop the reaction. The optical density
128 value was read by placing the microplate in a microplate reader for 30 min with the reading
129 wavelength of 450 nm and the calibration wavelength of 570 nm.
131 1. Kaplan, C. W., et al. Selective membrane disruption: mode of action of C16G2, a specifically
133 2. Eckert, R., et al. Adding selectivity to antimicrobial peptides: rational design of a multidomain
134 peptide against Pseudomonas spp. Antimicrob Agents Chemother. 50(4), 1480–1488 (2006).
135 3. Eckert, R., et al. Targeted killing of Streptococcus mutans by a pheromone-guided "smart"

NF-κB p-p65 subunit = assay: Western blotting of lung tissues, p-p65/p65; format: in vivo, mice; conditions: for densitometric analysis of p-p65/p65 ratio: LPS + substance, Mean; for inhibition of LPS-induced translocation of the NF-κB p-p65 subunit: lung tissue 8 h, LPS 13.5 mg per kg, western blotting, densitometry
Protocol: Additionally, the mice were sacrificed at 8 h and the lung tissues were homogenized and suspended in […] HEPES buffer for 20 min according to standard procedures. After centrifugation at 4 °C for 20 min (12,000 rpm), the protein levels of supernatants were quantified using a Bradford protein assay kit. A total of 30 μg proteins were analyzed on an 8–12% sodium dodecyl sulfate-polyacrylamide gel electrophoresis (SDS-PAGE) gel and were immunoblotted onto PVDF membranes, followed by an incubation with the primary antibodies of p65, p-p65, extracellular signal-regulated kinase (ERK)1/2, p-ERK1/2, and IκBα overnight at 4 °C. After washing, the blots were incubated with the peroxidase conjugated goat-rabbit or goat-mouse antibodies. Relative protein expression levels were quantified by a densitometric measurement of chemiluminescence (ECL) reaction band. β-actin was used as the internal reference.

[3] = 0.625 μM, LPS-coated plate, peptide in DMEM + 10% FBS, 37 °C, 1 h, anti-LBP mAb, OD450
[4] = RAW 264.7 cells incubated with 0.1 μg per ml LPS
[5] = RAW 264.7 cells incubated with 1 μg per ml LPS

Row | Compound | change of MIC over the course of 30 serial passages (E. coli CVCC195) | LPS-LBP binding (relative), Mean (binding of LPS to LBP; [3]) | LPS-LBP binding (relative), Mean (binding of LPS to LBP; 1.25 μM) | LPS-LBP binding (relative), Mean (binding of LPS to LBP; 2.5 μM) | LPS-LBP binding (relative), Mean (binding of LPS to LBP; 5 μM) | LPS-LBP binding (relative), Mean (binding of LPS to LBP; 10 μM) | LPS-LBP binding (relative), Mean (binding of LPS to LBP; 20 μM) | LPS-LBP binding (relative), Mean (binding of LPS to LBP; 40 μM) | IL-6 Mean [1, 4] | IL-10 Mean [1, 4] | TNFα Mean [1, 4] | IL-6 Mean [1, 5] | IL-10 Mean [1, 5] | TNFα Mean [1, 5] | IAP, Mean [2] | densitometric analysis of p-p65/p65 ratio (NF-κB p-p65 subunit) | inhibition of LPS-induced translocation of the NF-κB p-p65 subunit (NF-κB p-p65 subunit) [%]
1 | H-RVQGRWKVRASFFKEAAAKEAAAKGFAWNVCVYRNGVRVCHRRAN-OH (disulfide 31-40) [A6] | hardly changed | 0.6863 | 0.4991 | 0.4036 | 0.3236 | 0.2858 | 0.2468 | 0.1705 | 246.9 | 89.8 | 410.667 | 216.667 | 77.3667 | 355.9 | 11.893 | 0.106 | 89.7
2 | CC(C)[C@@H]1NC(=O)CNC(=O)[C@H](CC(N)=O)NC(=O)[C@H](CCCNC(=N)N)NC(=O)[C@H](Cc2ccc(O)cc2)NC(=O)[C@H](C(C)C)NC(=O)[C@@H](NC(=O)[C@@H](NC(=O)[C@H](CC(N)=O)NC(=O)[C@H](Cc2c[nH]c3ccccc23)NC(=O)[C@H](C)NC(=O)[C@H](Cc2ccccc2)NC(=O)CN)C(C)C)CSSC[C@@H](C(=O)N[C@@H](Cc2c[nH]cn2)C(=O)N[C@@H](CCCNC(=N)N)C(=O)N[C@@H](CCCNC(=N)N)C(=O)N[C@@H](C)C(=O)N[C@@H](CC(N)=O)C(=O)O)NC(=O)[C@H](C(C)C)NC(=O)[C@H](CCCNC(=N)N)NC1=O [N6] (H-GFAWNVCVYRNGVRVCHRRAN-OH; disulfide 7-16; N-terminus and C-terminus assumed) | – | 0.82 | 1.017 | 0.8065 | 0.8105 | 0.7607 | 0.6457 | 0.5608 | 279.833 | 106.233 | 479.8 | 303.4 | 118.033 | 495.967 | 10.7594 | 0.9793 | 5
3 | polymyxin B [PMB] | hardly changed | 0.8274 | 0.5768 | 0.4491 | 0.3343 | 0.393 | 0.3466 | 0.2168 | 311.767 | 122.2 | 546.867 | 278.7 | 116.9 | 447.633 | 13.0879 | 0.01553 | 98.4
4 | CC(C)[C@@H]1NC(=O)CNC(=O)[C@H](CC(N)=O)NC(=O)[C@H](CCCNC(=N)N)NC(=O)[C@H](Cc2ccc(O)cc2)NC(=O)[C@H](C(C)C)NC(=O)[C@@H](NC(=O)[C@@H](NC(=O)[C@H](CC(N)=O)NC(=O)[C@H](Cc2c[nH]c3ccccc23)NC(=O)[C@H](C)NC(=O)[C@H](Cc2ccccc2)NC(=O)CNC(=O)[C@H](CO)NC(=O)CNC(=O)CNC(=O)CNC(=O)CNC(=O)[C@H](CCCCN)NC(=O)[C@H](Cc2ccccc2)NC(=O)[C@H](Cc2ccccc2)NC(=O)[C@H](CO)NC(=O)[C@H](C)NC(=O)[C@H](CCCNC(=N)N)NC(=O)[C@@H](NC(=O)[C@H](CCCCN)NC(=O)[C@H](Cc2c[nH]c3ccccc23)NC(=O)[C@H](CCCNC(=N)N)NC(=O)CNC(=O)[C@H](CCC(N)=O)NC(=O)[C@@H](NC(=O)[C@@H](N)CCCNC(=N)N)C(C)C)C(C)C)C(C)C)CSSC[C@@H](C(=O)N[C@@H](Cc2c[nH]cn2)C(=O)N[C@@H](CCCNC(=N)N)C(=O)N[C@@H](CCCNC(=N)N)C(=O)N[C@@H](C)C(=O)N[C@@H](CC(N)=O)C(=O)O)NC(=O)[C@H](C(C)C)NC(=O)[C@H](CCCNC(=N)N)NC1=O [G6] (H-RVQGRWKVRASFFKGGGGSGFAWNVCVYRNGVRVCHRRAN-OH; disulfide 26-35) | hardly changed | 0.7905 | 0.7506 | 0.344 | 0.2387 | 0.1958 | 0.1311 | 0.1347 | 280.633 | 106.633 | 481.5 | 352.733 | 142.667 | 599.567 | 11.4812 | 0.7685 | 25.3
